Results from patent US20080015147A1, “Method for inhibiting neuronal cell death” (priority 2006, published 2008).
Entries after “also recorded” stand apart in the source; their conditions may differ.

How the values were obtained:
[1] = tested on: N38 cells immortalized mouse hypothalamic cell line; experiment: Cell morphology analysis (small round necrotic cells); format: cell-based; conditions: for number of small round (necrotic) cells, vehicle vs TCAP-treated: 48 hrs; for number of rounded cells relative to vehicle: 72 hrs
Protocol: The effect of TCAP-1 on cell morphology was conducted using the N38 cells immortalized mouse hypothalamic cell line(Belsham et al, 2004). Cells were grown in six-well culture plate with 2 ml of Dulbeco's Modified Eagle Medium (DMEM) with high glucose, […], 25 mM HEPES buffer, pyridoxine hydrochloride in the absence of sodium pyruvate, 5 ml penicillin with 10% fetal bovine serum (FBS) at pH 7.4 (all from Gibco-Invitrogen, Burlington, Canada).
At 24 and 48 hrs, the medium was replaced with medium buffered at pH 6.8, 7.4, 8.0 or 8.4. Half of the cell groups received (2×10^−7 M) TCAP-1, whereas the other half received phosphate buffered saline (PBS) pH 7.4 containing 8 g NaCl, 0.2 g KCl, 1.4 g Na2HPO4, 0.2 g KH2PO4 in. 800 mL ddH2O. For all groups, 4 replicates were run. Digital pictures were taken at 24, 48 and 72 hrs using an Olympus IX&1 inverted microscope at a magnification of 200× and analyzed using LabWorks 4.0 Image Acquisition and Analysis software (UltraViolet Products Ltd).

N38 cells = experiment: Fluorescent microscopy of necrosis and apoptosis markers; format: cell-based, mouse; conditions: 48 hrs
Protocol: N38 cells were cultured on poly-D-Lysine treated coverslips (VWR, Mississauga) in each of the four pH condition, and cells were washed twice with PBS, each fluorochrome was added to each well: 5 μl Fluorescein (FITC)-Annexin V in Tris EDTA buffer containing 0.1% BSA (Bovine serum albumin) and 0.1% NaN3, pH 7.5, 5 μl rhodamine EtD-III 200 μM in PBS and 5 μl 4′,6-Diamidino-2-phenylindole (DAPI) Hoechst 33342 5 μg/mL in PBS (Biotium, Inc. Hayward). The samples were incubated in the dark for 15 min, then washed before being placed on slides. The cells were viewed under a Leica DM4500 inverted fluorescent microscope and digitally analyzed using OpenLab software.
Annexin V labelled with fluorescein (FITC) was used to identify apoptotic cells in green. Ethidium homodimer III (EtD-III) is a positively charged nucleic acid probe, which is impermeable to live or apoptotic cells but stains necrotic cells with red fluorescence (rhodamine) and Hoechst 3342 (4′,6-Diamidino-2-phenylindole) (DAPI) emits bright blue fluorescence upon binding to DNA in living cells.

superoxide dismutase = experiment: Superoxide dismutase gene expression by real-time PCR; format: cell-based, mouse; conditions: p<0.01
superoxide radical = experiment: Superoxide radical measured by conversion of a soluble tetrazolium salt; format: cell-based, mouse; conditions: 48 hours
Protocol: The presence of the superoxide radical was measured indirectly by the conversion of a soluble tetrazolium salt in cells after 48 hours (FIG. 8A).

Phospho-Akt = Phospho-Akt western blot; format: cell-based, mouse; conditions: all pH treatments; 48 hrs
Protocol: Western blots using Akt and phosphorylated Akt (P-Akt) primary antibodies were conducted on all conditions of the cultured N38 cells to determine whether TCAP was preventing cell death by phosphorylation. The same western blot procedure outlined above was repeated with an Akt primary antibody (Cell Signalling, Beverly) at a titer of 1:500, followed by membrane incubation with anti-rabbit HRP-conjugated secondary antibody (Amersham, Baie d'Urfé) at 1:3000, followed by exposure on Kodak X-OMAT Blue film (Perkin Elmer Canada Inc, Vaudreuil-Dorion) for 30 min. Phospho Akt expression at 48 hrs was determined using the method described above with a PAkt primary antibody (Cell Signalling 9271) at 1:1000 followed by membrane incubation with anti-rabbit HRP-conjugated secondary antibody (Amersham, Baie d'Urfé) at 1:2000 followed by exposure on Kodak X-OMAT Blue film (Perkin Elmer Canada Inc, Vaudreuil-Dorion) overnight. Cultured N38 cells were serum-starved for 48 hours in order to induce phosphorylation and following the same protocol above were loaded as a control. Total optical density of the blots, were quantified using LabWorks 4.0 Image Acquisition and Analysis Software from Ultra-Violet Products Ltd. (UVP).

[2] = tested on: superoxide copper chaperone (CCSD); experiment: Superoxide copper chaperone (CCSD) expression by real-time PCR; format: cell-based, mouse; conditions: pH 8.4

Substance: teneurin C-terminus associated peptide [TCAP-1]
- number of small round (necrotic) cells, vehicle vs TCAP-treated ([1]; pH 6.8, p<0.05): significant increase in the number of small round cell types (necrotic cells) in the vehicle-treated cultures
- observable morphological changes ([1]; pH 7.4, TCAP-1 2×10^−7 M): did not induce any observable morphological changes
- number of small round (necrotic) cells, vehicle vs TCAP-treated ([1]; pH 8.0, p<0.001): significant increase in the number of small round cell types (necrotic cells) in the vehicle-treated cultures
- number of rounded cells relative to vehicle ([1]; pH 8.0, p<0.001): significantly decreased the number of rounded cells
- number of small round (necrotic) cells, vehicle vs TCAP-treated ([1]; pH 8.4, p<0.001): significant increase in the number of small round cell types (necrotic cells) in the vehicle-treated cultures
- number of rounded cells relative to vehicle ([1]; pH 8.4, p<0.001): significantly decreased the number of rounded cells
- number of rhodamine-fluorescing (necrotic) cells (N38 cells; pH 6.8): decreased the number of rhodamine-fluorescing cells
- number of rhodamine-fluorescing (necrotic) cells (N38 cells; pH 6.8, listed as TCAP): significantly decreased the amount of necrotic cells
- number of rhodamine-fluorescing (necrotic) cells (N38 cells; pH 8.0): decreased the number of rhodamine-fluorescing cells
- number of rhodamine-fluorescing (necrotic) cells (N38 cells; pH 8.0, listed as TCAP): significantly decreased the amount of necrotic cells
- number of rhodamine-fluorescing (necrotic) cells (N38 cells; pH 8.4): decreased the number of rhodamine-fluorescing cells
- number of rhodamine-fluorescing (necrotic) cells (N38 cells; pH 8.4, listed as TCAP): significantly decreased the amount of necrotic cells
- superoxide dismutase gene expression vs vehicle (superoxide dismutase; pH 7.4): increase over the vehicle treated cells
- superoxide dismutase gene expression vs vehicle (superoxide dismutase; pH 8.4): increase over the vehicle treated cells
- decrease in absorbance of the substrate (proportional to superoxide radical activity) (superoxide radical; pH 8.0, p<0.05): 40%
- decrease in absorbance of the substrate (proportional to superoxide radical activity) (superoxide radical; pH 8.4, p<0.01): 60%
- Akt phosphorylation (serine 473) on western blot (Phospho-Akt): no bands in any samples; also recorded: no indication of AKT phosphorylation
- CCSD expression increase over vehicle treated cells [2]: ~4.5 fold
